From US20260325685A1, “Radiopharmaceutical Compositions Targeting Carbonic Anhydrase IX and Uses Thereof” (RayzeBio, Inc., priority 2023, published 2026)
Where two headings read alike, the source gives them in different places.

Columns and labels:
human CA-IX = molecular target: T1, human CA-IX (Homo sapiens, UniProt Q16790); assay: Surface Plasmon Resonance (SPR) binding kinetics to recombinant human CA-IX (Biacore 8K, single-cycle kinetics, 1:1 binding model)
T1 construct: purchased Acro CA9-H82E3
In short: (§1)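 At 25° C, compound was injected at nine concentrations from 100 to 0.39 nM (PBS-P+ pH 7.4, 1% DMSO) over streptavidin-captured recombinant human CA-IX or CA-XII (1200-1800 RU). Association 120 s, dissociation 1200 s, single-cycle format; association and dissociation constants from 1:1 kinetic fits.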

human CA-XII = molecular target: T2, human CA-XII (Homo sapiens, UniProt O43570); assay: Surface Plasmon Resonance (SPR) binding kinetics to recombinant human CA-XII (Biacore 8K, single-cycle kinetics, 1:1 binding model)
T2 construct: purchased Creative BioMart CA12-261H
T2 sequence (O43570 25-354): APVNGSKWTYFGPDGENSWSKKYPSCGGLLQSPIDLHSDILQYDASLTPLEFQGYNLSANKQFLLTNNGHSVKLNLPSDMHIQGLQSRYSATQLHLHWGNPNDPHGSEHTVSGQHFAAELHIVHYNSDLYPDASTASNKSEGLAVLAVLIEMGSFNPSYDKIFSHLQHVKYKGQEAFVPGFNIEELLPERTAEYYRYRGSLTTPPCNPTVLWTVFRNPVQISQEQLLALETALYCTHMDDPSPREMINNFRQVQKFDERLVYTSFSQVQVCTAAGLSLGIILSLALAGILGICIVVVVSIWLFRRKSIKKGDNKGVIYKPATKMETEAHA
In short: as §1

[1] = Chelated Metal: Lu-175; SPR, 25° C., pH 7.4; read-out: CAIX KD
[2] = Chelated Metal: Lu-175, 25° C., pH 7.4, read-out: CAXII KD

Structure (SMILES)	Kd (human CA-IX; [1]) [nM]	Kd (human CA-XII; [2]) [nM]	Kd (human CA-IX; read-out: CAIX KD; Chelated Metal: Lu-175; SPR, 25° C., pH 7.4) [nM]	Kd (human CA-XII; read-out: CAXII KD, Chelated Metal: Lu-175, 25° C., pH 7.4) [nM]
NS(=O)(=O)c1nnc(NC(=O)C23CC(c4cn(CCNC(=O)[C@@H]5CN(C(=O)CN6CCN(CC(=O)O)CCN(CC(=O)O)CCN(CC(=O)O)CC6)CCN5C(=O)C[C@H](Nc5ncc(C(=O)NCc6n[nH]c7ccccc67)cn5)C(=O)O)nn4)(C2)C3)s1.[Lu+3] [Compound 111.10]	2.5 to 10	> 10	–	–
NS(=O)(=O)c1nnc(NC(=O)C23CC(c4cn(CCNC(=O)[C@@H]5CN(C(=O)CN6CCN(CC(=O)O)CCN(CC(=O)O)CCN(CC(=O)O)CC6)CCN5C(=O)C[C@H](Nc5ncc(C(=O)NCCc6ccc(C7CC7)cc6)cn5)C(=O)O)nn4)(C2)C3)s1.[Lu+3] [Compound 111.11]	1 to 2.5	> 10	–	–
NCCNC(=O)c1cnc(N[C@@H](CC(=O)N2CCN(C(=O)CN3CCN(CC(=O)O)CCN(CC(=O)O)CCN(CC(=O)O)CC3)C[C@H]2C(=O)NCCn2cc(C34CC(C(=O)Nc5nnc(S(N)(=O)=O)s5)(C3)C4)nn2)C(=O)O)nc1.[Lu+3] [Compound 111.12]	2.5 to 10	> 10	–	–
NS(=O)(=O)c1nnc(NC(=O)C23CC(c4cn(CCNC(=O)[C@@H]5CN(C(=O)CN6CCN(CC(=O)O)CCN(CC(=O)O)CCN(CC(=O)O)CC6)CCN5C(=O)C[C@H](Nc5ncc(C(=O)NCc6ccc(S(F)(F)(F)(F)F)cc6)cn5)C(=O)O)nn4)(C2)C3)s1.[Lu+3] [Compound 111]	–	–	2.5 to 10	> 10
NS(=O)(=O)c1nnc(NC(=O)C23CC(c4cn(CCNC(=O)[C@@H]5CN(C(=O)CN6CCN(CC(=O)O)CCN(CC(=O)O)CCN(CC(=O)O)CC6)CCN5C(=O)CNC(=O)C5(C(=O)O)CCN(C(=O)Cc6ccc7cn[nH]c7c6)CC5)nn4)(C2)C3)s1.[Lu+3] [Compound 112.1]	2.5 to 10	> 10	–	–
NS(=O)(=O)c1nnc(NC(=O)C23CCC(c4cn(CCNC(=O)[C@@H]5CN(C(=O)CN6CCN(CC(=O)O)CCN(CC(=O)O)CCN(CC(=O)O)CC6)CCN5C(=O)CNC(=O)C5(C(=O)O)CCN(C(=O)CCCc6ccc(I)cc6)CC5)nn4)(CC2)CC3)s1.[Lu+3] [Compound 112.2]	< 1	2.5 to 10	–	–
NS(=O)(=O)c1nnc(NC(=O)C23CC(c4cn(CCNC(=O)[C@@H]5CN(C(=O)CN6CCN(CC(=O)O)CCN(CC(=O)O)CCN(CC(=O)O)CC6)CCN5C(=O)CNC(=O)C5(C(=O)O)CCN(C(=O)CCCCc6ccc(O)cc6)CC5)nn4)(C2)C3)s1.[Lu+3] [Compound 112.3]	1 to 2.5	> 10	–	–
NS(=O)(=O)c1nnc(NC(=O)C23CC(c4cn(CCNC(=O)[C@@H]5CN(C(=O)CN6CCN(CC(=O)O)CCN(CC(=O)O)CCN(CC(=O)O)CC6)CCN5C(=O)CNC(=O)C5(C(=O)O)CCN(C(=O)CCc6n[nH]c7ccccc67)CC5)nn4)(C2)C3)s1.[Lu+3] [Compound 112.4]	2.5 to 10	> 10	–	–
NS(=O)(=O)c1nnc(NC(=O)C23CC(c4cn(CCNC(=O)[C@@H]5CN(C(=O)CN6CCN(CC(=O)O)CCN(CC(=O)O)CCN(CC(=O)O)CC6)CCN5C(=O)CNC(=O)C5(C(=O)O)CCN(C(=O)CCCc6n[nH]c7ccccc67)CC5)nn4)(C2)C3)s1.[Lu+3] [Compound 112.5]	2.5 to 10	> 10	–	–
NS(=O)(=O)c1nnc(NC(=O)C23CC(c4cn(CCNC(=O)[C@@H]5CN(C(=O)CN6CCN(CC(=O)O)CCN(CC(=O)O)CCN(CC(=O)O)CC6)CCN5C(=O)CNC(=O)C5(C(=O)O)CCN(C(=O)Cc6n[nH]c7ccccc67)CC5)nn4)(C2)C3)s1.[Lu+3] [Compound 112.6]	1 to 2.5	> 10	–	–
NS(=O)(=O)c1nnc(NC(=O)C23CC(c4cn(CCNC(=O)[C@@H]5CN(C(=O)CN6CCN(CC(=O)O)CCN(CC(=O)O)CCN(CC(=O)O)CC6)CCN5C(=O)CNC(=O)C5(C(=O)O)CCN(C(=O)CCC6CCCCCC6)CC5)nn4)(C2)C3)s1.[Lu+3] [Compound 112.7]	< 1	> 10	–	–
NS(=O)(=O)c1nnc(NC(=O)C23CC(c4cn(CCNC(=O)[C@@H]5CN(C(=O)CN6CCN(CC(=O)O)CCN(CC(=O)O)CCN(CC(=O)O)CC6)CCN5C(=O)CNC(=O)C5(C(=O)O)CCN(C(=O)CC6CC7(CCC7)C6)CC5)nn4)(C2)C3)s1.[Lu+3] [Compound 112.8]	< 1	2.5 to 10	–	–
NS(=O)(=O)c1nnc(NC(=O)C23CC(c4cn(CCNC(=O)[C@@H]5CN(C(=O)CN6CCN(CC(=O)O)CCN(CC(=O)O)CCN(CC(=O)O)CC6)CCN5C(=O)CNC(=O)C5(C(=O)O)CCN(C(=O)c6ccc(C7CC7)cc6)CC5)nn4)(C2)C3)s1.[Lu+3] [Compound 112.9]	< 1	> 10	–	–
NS(=O)(=O)c1nnc(NC(=O)C23CC(c4cn(CCNC(=O)[C@@H]5CN(C(=O)CN6CCN(CC(=O)O)CCN(CC(=O)O)CCN(CC(=O)O)CC6)CCN5C(=O)CNC(=O)C5(C(=O)O)CCN(C(=O)c6n[nH]c7ccccc67)CC5)nn4)(C2)C3)s1.[Lu+3] [Compound 112.10]	< 1	> 10	–	–
NS(=O)(=O)c1nnc(NC(=O)C23CC(c4cn(CCNC(=O)[C@@H]5CN(C(=O)CN6CCN(CC(=O)O)CCN(CC(=O)O)CCN(CC(=O)O)CC6)CCN5C(=O)CNC(=O)C5(C(=O)O)CCN(C(=O)c6cc(C(F)(F)F)n[nH]6)CC5)nn4)(C2)C3)s1.[Lu+3] [Compound 112.11]	2.5 to 10	> 10	–	–
NS(=O)(=O)c1nnc(NC(=O)C23CC(c4cn(CCNC(=O)[C@@H]5CN(C(=O)CN6CCN(CC(=O)O)CCN(CC(=O)O)CCN(CC(=O)O)CC6)CCN5C(=O)CNC(=O)C5(C(=O)O)CCN(C(=O)Cc6ccc(C7CC7)cc6)CC5)nn4)(C2)C3)s1.[Lu+3] [Compound 112.12]	1 to 2.5	> 10	–	–
Cc1c(C(F)(F)F)n[nH]c1C(=O)N1CCC(C(=O)O)(C(=O)NCC(=O)N2CCN(C(=O)CN3CCN(CC(=O)O)CCN(CC(=O)O)CCN(CC(=O)O)CC3)C[C@H]2C(=O)NCCn2cc(C34CC(C(=O)Nc5nnc(S(N)(=O)=O)s5)(C3)C4)nn2)CC1.[Lu+3] [Compound 112.13]	1 to 2.5	> 10	–	–
NS(=O)(=O)c1nnc(NC(=O)C23CC(c4cn(CCNC(=O)[C@@H]5CN(C(=O)CN6CCN(CC(=O)O)CCN(CC(=O)O)CCN(CC(=O)O)CC6)CCN5C(=O)CNC(=O)C5(C(=O)O)CCN(C(=O)Cc6c[nH]nc6C(F)(F)F)CC5)nn4)(C2)C3)s1.[Lu+3] [Compound 112.14]	2.5 to 10	> 10	–	–
NS(=O)(=O)c1nnc(NC(=O)C23CC(c4cn(CCNC(=O)[C@@H]5CN(C(=O)CN6CCN(CC(=O)O)CCN(CC(=O)O)CCN(CC(=O)O)CC6)CCN5C(=O)CNC(=O)C5(C(=O)O)CCN(C(=O)Cc6n[nH]c7ccc(F)cc67)CC5)nn4)(C2)C3)s1.[Lu+3] [Compound 112.15]	1 to 2.5	> 10	–	–
NS(=O)(=O)c1nnc(NC(=O)C23CC(c4cn(CCNC(=O)[C@@H]5CN(C(=O)CN6CCN(CC(=O)O)CCN(CC(=O)O)CCN(CC(=O)O)CC6)CCN5C(=O)CNC(=O)C5(C(=O)O)CCN(C(=O)Cc6ccc7[nH]ncc7c6)CC5)nn4)(C2)C3)s1.[Lu+3] [Compound 112.16]	2.5 to 10	> 10	–	–
NS(=O)(=O)c1nnc(NC(=O)C23CC(c4cn(C[C@H]5CN(C(=O)CN6CCN(CC(=O)O)CCN(CC(=O)O)CCN(CC(=O)O)CC6)CCN5C(=O)CNC(=O)C5(C(=O)O)CCN(C(=O)Cc6n[nH]c7ccccc67)CC5)nn4)(C2)C3)s1.[Lu+3] [Compound 112.17]	< 1	1 to 2.5	–	–
